Data on one compound can be found in patent EP2108954A1, “A test system for detecting intracellular cyclic nucleotide level and methods and uses thereof” (Max-Planck-Gesellschaft zur Förderung der Wissenschaften …, priority 2008, dated 2009).

For one experiment, the target named is T1, Or22a and Or83b (Drosophila melanogaster, UniProt P81909+Q9VNB5).
T1 construct: expressed in transfected cells; host or cells: HEK293
T1 sequence (P81909 1-397): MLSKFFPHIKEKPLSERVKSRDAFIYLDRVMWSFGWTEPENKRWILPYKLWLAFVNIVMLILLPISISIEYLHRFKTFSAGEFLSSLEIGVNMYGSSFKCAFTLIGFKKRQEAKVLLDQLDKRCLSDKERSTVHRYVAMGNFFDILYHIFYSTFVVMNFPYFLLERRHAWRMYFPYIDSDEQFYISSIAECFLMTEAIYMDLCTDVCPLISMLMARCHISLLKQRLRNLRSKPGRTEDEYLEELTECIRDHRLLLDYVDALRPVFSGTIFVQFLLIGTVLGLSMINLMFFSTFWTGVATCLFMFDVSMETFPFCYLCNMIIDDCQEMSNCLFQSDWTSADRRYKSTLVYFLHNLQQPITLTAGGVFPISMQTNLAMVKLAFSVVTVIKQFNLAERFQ
T1 sequence (Q9VNB5 1-486): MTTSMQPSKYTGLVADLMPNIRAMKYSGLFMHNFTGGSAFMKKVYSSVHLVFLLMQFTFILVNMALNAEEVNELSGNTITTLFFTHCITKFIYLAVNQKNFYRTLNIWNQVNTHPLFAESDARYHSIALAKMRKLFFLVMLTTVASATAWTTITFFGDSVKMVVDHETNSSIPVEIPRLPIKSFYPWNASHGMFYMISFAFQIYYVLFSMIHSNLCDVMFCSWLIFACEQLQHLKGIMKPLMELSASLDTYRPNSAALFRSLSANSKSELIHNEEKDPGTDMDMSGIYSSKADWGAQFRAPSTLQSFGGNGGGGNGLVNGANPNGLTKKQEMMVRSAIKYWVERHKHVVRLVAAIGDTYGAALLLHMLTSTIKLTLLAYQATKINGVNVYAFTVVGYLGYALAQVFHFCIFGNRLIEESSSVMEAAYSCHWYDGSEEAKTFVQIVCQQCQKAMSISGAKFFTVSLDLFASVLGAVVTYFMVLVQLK
The experiment is described as follows: Whole-cell patch-clamp of currents in HEK293 cells coexpressing Or22a and Or83b. In kind it is cell-based. The conditions noted are these: 500 µM GDP-β-S in the pipette; n = 11. For orientation: In patch-clamp work, channel activity is measured electrically.

The subject of a further experiment is hCNGA2. The experiment is described as follows: Calcium imaging (fura-2) in HEK293 cells expressing hCNGA2 and Or22a. In kind it is cell-based, human. Particulars: most prominent near the plasma membrane (Fig. 5d). As to the method: Free intracellular Ca^2+ concentration ([Ca^2+]i) was determined by fura-2 fluorescence as described (Messutat et al., Cell Calcium 30, 199-211. (2001)). In brief, cells were loaded with fura-2 by incubation in bath solution containing 2 µM fura-2/acetomethylester for 20 min. Free intracellular Ca^2+ concentration ([Ca^2+]i) was determined with the fluorescence ratio method. Excitation of fura-2 at 340 and 380 nm was performed with a monochromator (Polychrome II, T.I.L.L. Photonics, Gräfelfing, Germany) coupled via an epifluorescence condenser into an Axioskop FS microscope (Carl Zeiss, Jena, Germany) with a water immersion objective (LUMPFL 40xW/IR/0.8; Olympus, Hamburg, Germany). […] [Ca^2+]i was calculated according to the equation [Ca^(2 +)]i = Keff (R-Rmin)/(Rmax-R). […] Keff, Rmin, and Rmax were determined using HEK293 cells permeabilized with 2 µM ionomycin and three solutions with different concentrations of free Ca^2+ (Ca^2+ free; 5 mM Ca^2+; 500 nM Ca^2+; the composition of the 500 nM solution was calculated with WEBMAXC v.2.20) (Patton et al., Cell Calcium 35, 427-31 (2004)). […]
Fluorescence images were acquired using a cooled CCD camera controlled by TILLVision 4.0 software (T.I.L.L. Photonics). […] Image pairs were obtained by excitation for 100 ms at 340 nm and 380 nm; background fluorescence was subtracted.

The target in a further experiment is T2, Or83b (Drosophila melanogaster, UniProt Q9VNB5).
T2 sequence (Q9VNB5 1-486): T1 sequence (Q9VNB5 1-486)
The experiment is described as follows: Whole-cell patch-clamp of HEK293 cells expressing Or83b alone. In kind it is cell-based. The arrangement: expressed in transfected cells; host or cells: HEK293. The conditions noted are these: HEK293 cells transfected with Or83b alone; whole-cell, -60 mV; n = 6. The procedure: In some experiments we transfected cells with pcDNA3-DOR22a-GFP or pcDNA3-DOR83b-GFP alone. We also examined the properties of DOR47a, which was cloned, using standard molecular biology methods into a pcDNA3.1(-) expression vector. To test for putative G-protein coupling, cells were transfected with the respective OR-DNA together with 1.5 µg hHCN2/pcDNA3 (provided by M. Biel, Munich, Germany), with 1 µg hKCNQ4/pcDNA3.1 or with 1 µg hCNGA2/pCMV6-XL4 (Origene, Rockville, MD, USA).
In brief, ion currents in HEK293 cells were measured at room temperature using whole-cell patch-clamp with appropriate compensation of series resistance and of capacitive currents. Additional experiments were performed in the outside-out configuration. Current measurements and data acquisition were performed using an EPC9 patch-clamp amplifier controlled by PatchMaster software (both HEKA Elektronik, Lambrecht, Germany). Patch-clamp pipettes were fabricated from borosilicate capillaries. Pipettes for whole-cell recordings had resistances of 2-4 MΩ for excised-patch recordings the pipette resistance was up to 15 MΩ.
To differentiate between ionotropic and metabotropic pathways of receptor activation (Fig. 2a-d) the pipette solution contained either 2 mM ATP plus 2 mM GTP or 2 mM ADP plus 2 mM GDP (both for whole-cell and outside-out configuration). For the preparation of Cl^--free solutions the chloride salts were substituted by gluconate salts. The pipette Cs^+ solution contained (in mM) 140 CsCl, 1 Mg-ATP, 10 EGTA, 10 HEPES (pH = 7.3), and the Cs^+ bath solution contained (in mM) 140 CsCl, 15 glucose, 15 HEPES (pH = 7.4). The Ca^2+-free bath solution contained (in mM) 140 NaCl, 15 glucose, 15 HEPES, and the Na^+-free bath solution contained (in mM) 140 NMDG-Cl, 10 CaCl2, 10 glucose, 15 HEPES.
With the exception of GDP-γ-S, which was applied via the patch pipette, all substances were applied to the bath using either a bath perfusion system (BPS4 from ALA, New York, USA) or a rapid solution changer (RSC160 from Biologic, Claix, France) which were controlled by the PatchMaster software (HEKA Elektronik).

As for `CCCC(=O)OCC` [Etb, ethyl butyrate], on Or22a and Or83b, the “Hill coefficient of Etb-induced currents” value is listed as 1.1. Also, the “[Ca^2+]i” value with hCNGA2 was “produced an increase in [Ca^2+]i”. The “inward current upon short Etb application” value at Or83b is reported as “no current was observed”.
